Source: US6512000B1, “Aminocarbonyl-substituted benzimidazoles having tryptase-inhibitory activity” (Boehringer Ingelheim Pharma KG, priority 1999, dated 2003)

Target: T1, rh beta tryptase (Homo sapiens, UniProt P20231)
T1 construct: purchased Promega
Test: Tryptase inhibition test (cleavage of N-p-tosyl-Gly-Pro-Lys-para-nitroaniline, p-nitroaniline measured at 405 nm)
Assay type: biochemical
Settings: pH 7.4, 37° C.; for inhibition at 10 µM / % Inhibition (10 μM): inhibition of rh beta tryptase at 10 μM test substance, substrate N-p-tosyl-Gly-Pro-Lys-para-nitroaniline 0.6 mM, 5 minutes; for IC50: concentration at which 50% of the tryptase enzyme activity is inhibited, substrate 0.6 mM
Outline: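 Screening at 10 μM gives percent inhibition, with IC50 derived for compounds above 70% inhibition. Enzyme: rh beta tryptase, 0.91 U/ml, pH 7.4 Tris HCl (100 mM), 5 mM Ca, 100 mg/ml heparin. After 5 min compound pre-incubation, 0.6 mM pNA substrate cleaved 5 min at 37 °C, monitored at 405 nm.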

T1 sequence (P20231 31-275): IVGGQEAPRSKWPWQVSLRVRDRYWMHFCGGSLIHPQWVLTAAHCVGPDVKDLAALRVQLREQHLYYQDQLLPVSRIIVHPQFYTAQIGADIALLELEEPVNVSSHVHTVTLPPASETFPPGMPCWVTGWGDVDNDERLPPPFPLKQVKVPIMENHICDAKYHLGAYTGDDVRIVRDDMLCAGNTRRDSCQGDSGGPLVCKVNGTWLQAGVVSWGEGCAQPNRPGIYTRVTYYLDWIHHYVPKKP

Row | inhibition at 10 µM [%] | IC50 [nM] | % Inhibition (10 μM) [%] | SMILES
1 | 58 | – | – | N=C(N)c1ccc(CCc2nc3cc(C(=O)N(CCN)CC4CCCCC4)ccc3n2CC2CCCO2)cc1 (stereo not drawn) [Example 354, 2-[2-(4-amidinophenyl)ethyl]-1-(tetrahydrofuran-2-yl-methyl)-benzimidazol-5-yl-carboxylic acid-N-(2-aminoethyl)-N-cyclohexylmethyl-amide]
2 | 51 | – | – | N=C(N)c1ccc(CCc2nc3cc(C(=O)N(CCN)CC4CCCCC4)ccc3n2Cc2cccs2)cc1 [Example 355, 2-[2-(4-amidinophenyl)ethyl]-1-(2-thiophenyl-methyl)-benzimidazol-5-yl-carboxylic acid-N-(2-aminoethyl)-N-cyclohexylmethyl-amide]
3 | 77 | 169 | – | CCOCCCn1c(CCc2ccc(C(=N)N)cc2)nc2cc(C(=O)N(CCN)CCCc3ccccc3)ccc21 [Example 358, 2-[2-(4-amidinophenyl)ethyl]-1-(3-ethoxypropyl)-benzimidazol-5-yl-carboxylic acid-N-(2-aminoethyl)-N-(3-phenylpropyl)-amide]
4 | 59 | – | – | CCCCN(CCCC)CCCn1c(CCc2ccc(C(=N)N)cc2)nc2cc(C(=O)N(CCN)CCCc3ccccc3)ccc21 [Example 359, 2-[2-(4-amidinophenyl)ethyl]-1-(3-di-n-butylaminopropyl)-benzimidazol-5-yl-carboxylic acid-N-(2-aminoethyl)-N-(3-phenylpropyl)-amide]
5 | 74 | – | – | N=C(N)c1ccc(CCc2nc3cc(C(=O)N(CCN)CCCc4ccccc4)ccc3n2CC2CC2)cc1 [Example 362, 2-[2-(4-amidinophenyl)ethyl]-1-cyclopropylmethyl-benzimidazol-5-yl-carboxylic acid-N-(2-aminoethyl)-N-(3-phenylpropyl)-amide]
6 | 57 | – | – | N=C(N)c1ccc(CCc2nc3cc(C(=O)N(CCN)CCCc4ccccc4)ccc3n2CCCN2CCOCC2)cc1 [Example 369, 2-[2-(4-amidinophenyl)ethyl]-1-[3-(morpholin-4-yl)-propyl]-benzimidazol-5-yl-carboxylic acid-N-(2-aminoethyl)-N-(3-phenylpropyl)-amide]
7 | 53 | – | – | N=C(N)c1ccc(CCc2nc3cc(C(=O)N(CCN)CCCc4ccccc4)ccc3n2CC2CCCO2)cc1 (stereo not drawn) [Example 370, 2-[2-(4-amidinophenyl)ethyl]-1-(tetrahydrofuran-2-yl-methyl)-benzimidazol-5-yl-carboxylic acid-N-(2-aminoethyl)-N-(3-phenylpropyl)-amide]
8 | 55 | – | – | N=C(N)c1ccc(CCc2nc3cc(C(=O)N(CCN)CCCc4ccccc4)ccc3n2Cc2cccs2)cc1 [Example 371, 2-[2-(4-amidinophenyl)ethyl]-1-(2-thiophenyl-methyl)-benzimidazol-5-yl-carboxylic acid-N-(2-aminoethyl)-N-(3-phenylpropyl)-amide]
9 | – | – | 62 | CCOCCCn1c(CCc2ccc(C(=N)N)cc2)nc2cc(C(=O)N(CCN)Cc3ccc(Cl)cc3)ccc21 [Example 374, 2-[2-(4-amidinophenyl)ethyl]-1-(3-ethoxypropyi)-benzimidazol-5-yl-carboxylic acid-N-(2-aminoethyl)-N-(4-chlorbenzyl)-amide]
10 | – | – | 58 | CCCCN(CCCC)CCCn1c(CCc2ccc(C(=N)N)cc2)nc2cc(C(=O)N(CCN)Cc3ccc(Cl)cc3)ccc21 [Example 375, 2-[2-(4-amidinophenyl)ethyl]-1-(3-di-n-butylaminopropyl)-benzimidazol-5-yl-carboxylic acid-N-(2-aminoethyl)-N-(4-chlorbenzyl)-amide]
11 | – | – | 52 | N=C(N)c1ccc(CCc2nc3cc(C(=O)N(CCN)Cc4ccc(Cl)cc4)ccc3n2CC2CC2)cc1 [Example 378, 2-[2-(4-amidinophenyl)ethyl]-1-cyclopropylmethyl-benzimidazol-5-yl-carboxylic acid-N-(2-aminoethyl)-N-(4-chlorbenzyl)-amide]
12 | – | – | 59 | Cc1ccccc1N1CCN(CCCn2c(CCc3ccc(C(=N)N)cc3)nc3cc(C(=O)N(CCN)Cc4ccc(Cl)cc4)ccc32)CC1 [Example 384, 2-[2-(4-amidinophenyl)ethyl]-1-{3-[4-(2-methylphenyl)-piperazin-1-yl]-propyl} -benzimidazol-5-yl-carboxylic acid-N-(2-aminoethyl)-N-(4-chlorbenzyl)-amide]
13 | – | – | 55 | N=C(N)c1ccc(CCc2nc3cc(C(=O)N(CCN)Cc4ccc(Cl)cc4)ccc3n2Cc2cccs2)cc1 [Example 387, 2-[2-(4-amidinophenyl)ethyl]-1-(2-thiophenyl-methyl)-benzimidazol-5-yl-carboxylic acid-N-(2-aminoethyl)-N-(4-chlorbenzyl)-amide]
14 | 60 | 402 | – | CCOCCCn1c(CCc2ccc(C(=N)N)cc2)nc2cc(C(=O)N(CCN)Cc3cccc(C(F)(F)F)c3)ccc21 [Example 390, 2-[2-(4-amidinophenyl)ethyl]-1-(3-ethoxypropyl)-benzimidazol-5-yl-carboxylic acid-N-(2-aminoethyl)-N-(3-trifluoromethylbenzyl)-amide]

Further lines, the compound ahead of its results:

Row | SMILES | inhibition at 10 µM [%] | IC50 [nM] | % Inhibition (10 μM) [%]
15 | CCCCN(CCN)C(=O)c1ccc2c(c1)nc(CCc1ccc(C(=N)N)cc1)n2CC1CCCO1 (stereo not drawn) [Example 290, 2-[2-(4-amidinophenyl)ethyl]-1-(tetrahydrofuran-2-yl-methyl)-benzimidazol-5-yl-carboxylic acid-N-(2-aminoethyl)-N-n-butyl-amide] | 70 | – | –
16 | CCCCN(CCN)C(=O)c1ccc2c(c1)nc(CCc1ccc(C(=N)N)cc1)n2Cc1cccs1 [Example 291, 2-[2-(4-amidinophenyl)ethyl]-1-(2-thiophenyl-methyl)-benzimidazol-5-ylcarboxylic acid-N-(2-aminoethyl)-N-n-butyl-amide] | 75 | – | –
17 | CCOCCCn1c(CCc2ccc(C(=N)N)cc2)nc2cc(C(=O)N(CCN)Cc3ccccc3)ccc21 [Example 294, 2-[2-(4-amidinophenyl)ethyl]-1-(3-ethoxypropyl)-benzimidazol-5-yl-carboxylic acid-N-(2-aminoethyl)-N-benzyl-amide] | 69 | 350 | –
18 | CCCCN(CCCC)CCCn1c(CCc2ccc(C(=N)N)cc2)nc2cc(C(=O)N(CCN)Cc3ccccc3)ccc21 [Example 295, 2-[2-(4-amidinophenyl)ethyl]-1-(3-di-n-butylaminopropyl)-benzimidazol-5-yl-carboxylic acid-N-(2-aminoethyl)-N-benzyl-amide] | 55 | – | –
19 | N=C(N)c1ccc(CCc2nc3cc(C(=O)N(CCN)Cc4ccccc4)ccc3n2CCCNC(=O)Cc2ccccc2)cc1 [Example 296, 2-[2-(4-amidinophenyl)ethyl]-1-[3-(benzylcarbonylamino)-propyl]-benzimidazol-5-yl-carboxylie acid-N-(2-aminoethyl)-N-benzyl-amide] | – | – | 51
20 | N=C(N)c1ccc(CCc2nc3cc(C(=O)N(CCN)Cc4ccccc4)ccc3n2CC2CC2)cc1 [Example 298, 2-[2-(4-amidinophenyl)ethyl]-1-cyclopropylmethyl-benzimidazol-5-yl-carboxylic acid-N-(2-aminoethyl)-N-benzyl-amide] | 57 | – | –
21 | Cc1ccccc1N1CCN(CCCn2c(CCc3ccc(C(=N)N)cc3)nc3cc(C(=O)N(CCN)Cc4ccccc4)ccc32)CC1 [Example 304, 2-[2-(4-amidinophenyl)ethyl]-1-{3-[4-(2-methylphenyl)-piperazin-1-yl]-propyl}-benzimidazol-5-yl-carboxylic acid-N-(2-aminoethyl)-N-benzyl-amide] | 51 | – | –
22 | N=C(N)c1ccc(CCc2nc3cc(C(=O)N(CCN)Cc4ccccc4)ccc3n2CC2CCCO2)cc1 (stereo not drawn) [Example 306, 2-[2-(4-amidinophenyl)ethyl]-1-(tetrahydrofuran-2-yl-methyl)-benzimidazol-5-yl-carboxylic acid-N-(2-aminoethyl)-N-benzyl-amide] | 62 | – | –
23 | N=C(N)c1ccc(CCc2nc3cc(C(=O)N(CCN)Cc4ccccc4)ccc3n2Cc2cccs2)cc1 [Example 307, 2-[2-(4-amidinophenyl)ethyl]-1-(2-thiophenyl-methyl)-benzimidazol-5-yl-carboxylic acid-N-(2-aminoethyl)-N-benzyl-amide] | 57 | – | –
24 | CCOCCCn1c(CCc2ccc(C(=N)N)cc2)nc2cc(C(=O)N(CCN)c3ccccn3)ccc21 [Example 310, 2-[2-(4-amidinophenyl)ethyl]-1-(3-ethoxypropyl)-benzimidazol-5-yl-carboxylic acid-N-(2-aminoethyl)-N (2-pyridyl)-amide] | – | 253 | 70
25 | CCOCCCn1c(CCc2ccc(C(=N)N)cc2)nc2cc(C(=O)N(CCN)CC3CCCCC3)ccc21 [Example 342, 2-[2-(4-amidinophenyl)ethyl]-1-(3-ethoxypropyl)-benzimidazol-5-yl-carboxylic acid-N-(2-aminoethyl)-N-cyclohexylmethyl-amide] | 75 | 275 | –
26 | N=C(N)c1ccc(CCc2nc3cc(C(=O)N(CCN)CC4CCCCC4)ccc3n2CC2CC2)cc1 [Example 346, 2-[2-(4-amidinophenyl)ethyl]-1-cyclopropylmethyl-benzimidazol-5-yl-carboxylic acid-N-(2-aminoethyl)-N-cyclohexylmethyl-amide] | 51 | – | –
27 | Cc1ccccc1N1CCN(CCCn2c(CCc3ccc(C(=N)N)cc3)nc3cc(C(=O)N(CCN)CC4CCCCC4)ccc32)CC1 [Example 352, 2-[2-(4-amidinophenyl)ethyl]-1-{3-[4-(2-methylphenyl)-piperazin-1-yl]-propyl}-benzimidazol-5-yl-carboxylic acid-N-(2-aminoethyl)-N-cyclohexylmethyl-amide] | 51 | – | –
28 | N=C(N)c1ccc(CCc2nc3cc(C(=O)N(CCN)Cc4ccc(Cl)cc4)ccc3n2CC2CCCO2)cc1 (stereo not drawn) [Example 386, 2-[2-(4-amidinophenyl)ethyl]-1-(tetrahydrofuran-2-yl-methyl)-benzimidazol-5-yl-carboxylic acid-N-(2-aminoethyl)-N-(4-chlorbenzyl)-amide] | – | – | 55
